Assay results reported in patent US7476509B2, “Compounds and methods for modulating functions of nonclassical cadherins” (Adherex Technologies Inc., priority 2002, dated 2009).

Test system: SKOV3 human ovarian cancer cells
Experiment: Effects of ADH358 on confluent cultures of SKOV3 cells (disruption of cell adhesion, microscopic examination)
Type: cell-based
Conditions: 1 mg/ml of culture medium, 24 hours of treatment
Experimental: We investigated the effects of the linear peptide ADH358 (H-RWAPIP-NH2 (SEQ ID NO: 2); Desmocollin derived peptide) on confluent cultures of SKOV3 cells. SKOV3 human ovarian cancer cells express desmosomes (which are composed of desmocollins and desmogleins). SKOV3 human ovarian cancer cells were obtained from Dr. Riaz Farookhi, McGill University, Montreal, Canada. The cells were cultured in minimum essential medium (MEM) supplemented with 10% fetal calf serum, non-essential amino acids, fungizone, penicillin-streptomycin, and gentamicin in a humidified atmosphere (5% CO2) at 37° C. All culture reagents were purchased from GIBCO (Burlington, ON). ADH358 (1 mg/ml of culture medium) was added to confluent cultures of SKOV3 cells. After 24 hours of treatment, the cells were fixed with 4% paraformaldehyde, followed by 3 washes with phosphate buffered saline, and then stained with hematoxylin. Control cultures were grown in the absence of peptide.

## H-RWAPIP-NH2 [ADH358]
  cell morphology / cell-cell attachment of SKOV3 cells: detach from one another and adopt an elongated, fibroblast-like morphology
Hematoxylin stain, vs control cultures without peptide
  effect on confluent SKOV3 monolayers (cell adhesion): disruption of the confluent SKOV3 monolayers
